We go through three compounds from patent US10385403B2, “DDR2 mutations in squamous cell lung cancer” (The Broad Institute, Inc., priority 2012, dated 2019).

Entries after “also recorded” stand apart in the source; their conditions may differ.

Series [1] concerns Src and STAT5 phosphorylation in DDR2 L63V-expressing Ba/F3 cells. The series can be described thus: Immunoblots of phospho-Src and phospho-STAT5. The format is cell-based. The note with it: single agent or with nilotinib, AP24534 or dasatinib; two days. On the procedure: Immunoblots: Immunoblots were performed using the Nupage system (Invitrogen) per the manufacturer's protocol. Cells were lysed in 1% NP-40 with protease (Roche) and phosphatase inhibitors (Calbiochem) and protein concentration assayed with the Bradford reagent (Bio-Rad). Primary antibodies used were Flag-M2 (Sigma), phospho-Y417-Src (Cell Signaling Technologies), phospho-Y694-STAT5 (Cell Signaling) and Actin (Santa Cruz). A DDR2 antibody was generated for this project by Bethyl Labs. Secondary HRP-conjugated antibodies were all obtained from Pierce and proteins detected by pico-ECL (Thermo Scientific). Images were imported into Adobe Illustrator using an Epson 4490 scanner. […] In all cases adjustment of brightness or contrast the adjustment was applied uniformly to the image as a whole.

Series [2] deals with Ba/F3 cells expressing DDR2 mutants. Kind of series: Four-day proliferation of IL-3-independent Ba/F3 cells. It is filed as cell-based. The conditions noted are these: for Killing / proliferation of Ba/F3 cells expressing DDR2 mutants: single agent. On the procedure:
(§1) Cell Culture. A549, NCI-H2286, HCC-366 and NCI-H1703 cells were obtained from the core collection at the Dana Farber Cancer Institute, having previously been purchased from the ATCC and used to establish a collection of early passage lung cancer cell lines which were analyzed by fingerprinting and SNP arrays (32). All cells used for the experiments described in this manuscript were obtained from freezes made at that time. Lung cancer cell lines were grown in RPMI (Invitrogen) with 10% fetal calf serum, NIH-3T3 cells were grown in DMEM (Mediatech) with 10% serum and Ba/F3 cells in RPMI supplemented with 10% serum and IL-3 (BD Biosciences) at 10 ng/ml. For IL-3 withdrawal experiments Ba/F3 cells were collected via centrifugation, washed once in sterile PBS and then resuspended in media without IL-3. Colony formation assays in NIH-3T3 cells were performed in six-well plates in which 25,000 NIH-3T3 cells were plated in triplicate in 1 ml of 0.33% top agar on top of 2 ml of 0.5% bottom agar. After three weeks colonies were counted using the NIH ImageJ software.
(§2) Cell Proliferation and Viability Assays. […] Proliferation was measured four days later.

The test system of series [3] is SCC lines harboring DDR2 mutations (NCI-H2286, HCC-366). The series can be described thus: Cell proliferation of DDR2-mutant SCC lines (Cell-Titer-Glo). It is filed as cell-based.
Series [4] concerns NCI-H1703 SCC cell line (PDGFRA amplification). The conditions noted are these: NCI-H1703, positive control line.
Description: Cell Proliferation and Viability Assays. Cell proliferation was measured with the Cell-Titer-Glo reagent (Promega) per the manufacturer's instructions. For experiments with the SCC cell lines cells were plated in clear-bottomed 96 well plates at a density of 1500 cells per well. The following day the drug was added and cell proliferation was measured six days later for the SCC cell lines. For Ba/F3 cells were plated at 5000 cells per well and the drug added the same day. Proliferation was measured four days later. Proliferation measurements were made using a standard 96 well plate luminometer/plate reader. Data are shown as relative values in which the luminescence at a given drug concentration is compared to untreated cells of the same cell type.
Statistics: For proliferation and colony formation assays mean values from a minimum of triplicate samples are reported as well as standard errors as calculated by Microsoft Excel. IC50 values were obtained using Graph Pad Prism software.
The test system of series [5] is HCC-366 cells (DDR2 L239R). The note with it: previous report; cited from earlier work.
The conditions of series [6]: human, in vivo; cited from earlier work.
Series [7] has as its system NIH-3T3 cells expressing L63V DDR2. Kind of series: Soft agar colony formation. The format is cell-based. The note with it: L63V DDR2, single application at plating. On the procedure:
as §1

Series [8] deals with DDR2 mutant cell lines. The series can be described thus: Cell viability by trypan blue exclusion. It is filed as cell-based. On the procedure: as §2
The next series concerns NCI-H1703 xenografts. Kind of series: Xenograft tumor size in nude mice. The note with it: 50 mg/kg oral gavage, two weeks.
A further series concerns NCI-H2286 xenografts. The series can be described thus: Xenograft tumor size in nude mice. The note with it: 50 mg/kg oral gavage, two weeks.
For series [9], the system named is DDR2 mutant cell lines. Kind of series: Annexin V analysis 48 hours after addition of drug. The conditions noted are these: 48 hours after drug. It is filed as cell-based.
For series [10], the system named is HCC-366 cells (DDR2 L239R). The text has this: (§3) Cell Proliferation and Viability Assays. […] Kinase inhibitors were purchased from LC Labs or were synthesized by Nathanael Gray's laboratory at Harvard Medical School.
Series [11] relates to NCI-H2286 cells (DDR2 I638F).
Text: as §3

Regarding `CN1CCN(CCOc2cc(OC3CCOCC3)c3c(Nc4c(Cl)ccc5c4OCO5)ncnc3c2)CC1` [AZD0530], the “Src and STAT5 phosphorylation” value in series [1] is “reduced Src and STAT5 phosphorylation in a dose-dependent fashion”. For the same compound, the “Proliferation on addition of AZD0530” value in series [2] (Ba/F3 DDR2 L63V grown in 50 nM nilotinib) is given as “marked reduction in proliferation”. In addition, the “Killing / proliferation of Ba/F3 cells expressing DDR2 mutants” value in [2] (without IL-3, four days) is on record as “modest effect on the proliferation; also recorded: minimal toxicity”.
On to `Cc1cn(-c2cc(NC(=O)c3ccc(C)c(Nc4nccc(-c5cccnc5)n4)c3)cc(C(F)(F)F)c2)cn1` [Nilotinib], for which the “Effect on proliferation at 50 nM” value in [2] (50 nM, wild-type Ba/F3 or Ba/F3 expressing DDR2 mutations) is on record as “little effect on proliferation”. In addition, the “Killing / proliferation of Ba/F3 cells expressing DDR2 mutants” value in series [2] (without IL-3, four days) is “modest activity; also recorded: minimal toxicity”. Further, the “Proliferation of SCC lines harboring DDR2 mutations” value in [3] was “inhibited the proliferation”.
In the case of “N-(2 ? chloro-6-methylphenyl)-2-[[6-[4-(2-hydroxyethyl)-1-piperazinyl]-2-methyl-4 ? pyrimidinyl]amino]-5-thiazolecarboxamide, monohydrate [Dasatinib]”, the IC50 in series [2] (mean over Ba/F3 lines expressing DDR2 mutants, without IL-3, four days, read-out: Mean calculated IC50) is 680 nM; in series [10] (read-out: IC50, inhibition of proliferation, HCC-366, six days) it was 140 nM; in series [11] (read-out: IC50, inhibition of proliferation, NCI-H2286, six days), 139 nM. Further, the Sensitivity of proliferation entry in [4] is “sensitive”. Also, the “Sensitivity rank among 83 NSCLC cell lines” value in series [5] is recorded as “most sensitive squamous cell lung cancer line”. Besides, the Toxicity in patients result in series [6] was “myelosuppression and the development of pleural and pericardial effusions”. Besides, in series [7], the “Colony formation in soft agar” value was “inhibited”. In the series on DDR2 mutant cell lines [8], the “Cell death vs cell cycle arrest by trypan blue exclusion” value was “cell death as opposed to cell cycle arrest”. Moreover, the Tumor size entry with NCI-H1703 xenografts and with NCI-H2286 xenografts was “decrease in tumor size” each time. Besides, the “Cellular annexin V staining” value in the series on DDR2 mutant cell lines [9] was “increase in cellular annexin V staining”. The “Increase of IC50 with ectopic DDR2 T654M gatekeeper mutation” value in series [10] (HCC-366 expressing T654M in cis with L239R) is listed as 209 fold; in [11] (NCI-H2286 expressing T654M in cis with I638F) it was 35 fold.
